This is an account of results in patent EP4722207A1, “OXOISOINDOLINYL-SUBSTITUTED TETRAHYDROPYRIMIDINEDIONE DERIVATIVE AND USE THEREOF” (Gluetacs Therapeutics (Shanghai) Co., Ltd., priority 2023, dated 2024).

Common to all, as to assay type: cell-based
What all share (details): compounds at 50 nM and 500 nM, 24 hours

One assay addresses T1, IKZF2 (Homo sapiens, UniProt Q96SW2+Q9UKS7).
T1 construct: effects of the compounds of the present disclosure on the expression of target proteins in cells; endogenous in cells; host or cells: human PBMCs (hPBMCs)
The assay can be described thus: Western-blot assay, substrate protein degradation in hPBMCs: IKZF2.

For another assay, the target named is T2, IKZF1 (Homo sapiens, UniProt Q13422+Q96SW2).
T2 construct: effects of the compounds of the present disclosure on the expression of target proteins in cells; endogenous in cells; host or cells: human PBMCs (hPBMCs)
The assay can be described thus: Western-blot assay, substrate protein degradation in hPBMCs: IKZF1.

The target of the next assay is T3, WEE1 (Homo sapiens, UniProt P30291+Q96SW2).
T3 construct: effects of the compounds of the present disclosure on the expression of target proteins in cells; endogenous in cells; host or cells: human PBMCs (hPBMCs)
T3 sequence (P30291 whole entry): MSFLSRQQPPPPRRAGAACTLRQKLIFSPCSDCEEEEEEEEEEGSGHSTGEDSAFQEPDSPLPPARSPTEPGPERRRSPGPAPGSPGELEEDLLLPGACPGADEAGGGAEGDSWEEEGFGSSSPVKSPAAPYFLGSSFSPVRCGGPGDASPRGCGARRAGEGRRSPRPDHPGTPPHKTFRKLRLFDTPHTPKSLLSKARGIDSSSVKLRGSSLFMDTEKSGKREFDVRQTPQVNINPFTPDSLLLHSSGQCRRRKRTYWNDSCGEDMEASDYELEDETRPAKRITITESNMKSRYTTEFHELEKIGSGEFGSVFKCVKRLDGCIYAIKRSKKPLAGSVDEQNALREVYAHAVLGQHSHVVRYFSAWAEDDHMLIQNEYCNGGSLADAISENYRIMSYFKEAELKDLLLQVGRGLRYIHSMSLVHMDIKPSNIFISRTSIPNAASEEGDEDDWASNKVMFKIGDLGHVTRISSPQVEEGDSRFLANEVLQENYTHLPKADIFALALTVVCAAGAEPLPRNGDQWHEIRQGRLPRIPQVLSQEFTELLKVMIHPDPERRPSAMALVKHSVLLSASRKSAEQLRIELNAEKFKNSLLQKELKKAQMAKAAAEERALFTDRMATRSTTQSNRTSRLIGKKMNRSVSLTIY
T3 sequence (Q96SW2 whole entry): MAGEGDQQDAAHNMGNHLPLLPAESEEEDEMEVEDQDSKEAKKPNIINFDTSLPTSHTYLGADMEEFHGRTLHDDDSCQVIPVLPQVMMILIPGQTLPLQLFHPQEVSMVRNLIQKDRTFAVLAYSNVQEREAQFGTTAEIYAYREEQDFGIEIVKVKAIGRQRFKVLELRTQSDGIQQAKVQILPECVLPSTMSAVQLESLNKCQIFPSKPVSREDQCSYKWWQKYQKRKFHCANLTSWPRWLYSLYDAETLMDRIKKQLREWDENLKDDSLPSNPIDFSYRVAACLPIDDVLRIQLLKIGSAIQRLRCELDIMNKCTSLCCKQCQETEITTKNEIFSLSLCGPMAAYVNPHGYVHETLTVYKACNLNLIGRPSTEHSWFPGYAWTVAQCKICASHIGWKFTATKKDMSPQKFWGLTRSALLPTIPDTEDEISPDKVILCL
T3 sequence (Q16531 whole entry partner): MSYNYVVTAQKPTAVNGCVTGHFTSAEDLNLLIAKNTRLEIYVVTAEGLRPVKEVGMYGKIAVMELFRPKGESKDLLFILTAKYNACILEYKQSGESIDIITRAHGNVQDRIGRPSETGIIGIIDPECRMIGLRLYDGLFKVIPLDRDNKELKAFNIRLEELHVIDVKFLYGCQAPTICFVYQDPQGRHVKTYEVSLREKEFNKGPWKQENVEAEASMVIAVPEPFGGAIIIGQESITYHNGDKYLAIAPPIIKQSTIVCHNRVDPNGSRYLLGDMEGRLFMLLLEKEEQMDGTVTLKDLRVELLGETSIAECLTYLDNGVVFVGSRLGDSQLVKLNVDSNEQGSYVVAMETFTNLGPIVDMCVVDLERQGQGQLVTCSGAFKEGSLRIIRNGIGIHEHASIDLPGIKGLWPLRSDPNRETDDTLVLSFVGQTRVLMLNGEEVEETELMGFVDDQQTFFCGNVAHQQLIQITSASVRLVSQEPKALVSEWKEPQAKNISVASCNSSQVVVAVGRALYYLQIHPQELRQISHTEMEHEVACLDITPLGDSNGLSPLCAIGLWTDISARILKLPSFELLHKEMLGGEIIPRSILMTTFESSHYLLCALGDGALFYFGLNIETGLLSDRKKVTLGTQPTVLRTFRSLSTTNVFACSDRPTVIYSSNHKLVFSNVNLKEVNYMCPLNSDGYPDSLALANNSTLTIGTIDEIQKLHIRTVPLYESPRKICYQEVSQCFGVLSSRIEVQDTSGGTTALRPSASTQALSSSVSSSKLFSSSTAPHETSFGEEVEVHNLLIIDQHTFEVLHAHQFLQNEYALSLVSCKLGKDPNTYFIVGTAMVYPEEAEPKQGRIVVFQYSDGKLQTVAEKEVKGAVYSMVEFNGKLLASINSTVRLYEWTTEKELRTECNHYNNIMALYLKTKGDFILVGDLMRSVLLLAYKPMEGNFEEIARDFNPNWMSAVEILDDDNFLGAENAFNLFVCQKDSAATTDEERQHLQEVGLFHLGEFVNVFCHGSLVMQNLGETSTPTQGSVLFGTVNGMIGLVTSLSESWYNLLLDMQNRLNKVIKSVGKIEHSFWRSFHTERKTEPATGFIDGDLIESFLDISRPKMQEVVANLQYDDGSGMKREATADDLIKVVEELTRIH
The assay can be described thus: Western-blot assay, substrate protein degradation in hPBMCs: WEE1.

A further assay has as its target T4, CK1α (Homo sapiens, UniProt P48729+Q96SW2).
T4 construct: effects of the compounds of the present disclosure on the expression of target proteins in cells; endogenous in cells; host or cells: human PBMCs (hPBMCs)
The assay can be described thus: Western-blot assay, substrate protein degradation in hPBMCs: CK1α.

For a further assay, the target named is T5, GSPT1 (Homo sapiens, UniProt P15170+Q96SW2).
T5 construct: effects of the compounds of the present disclosure on the expression of target proteins in cells; endogenous in cells; host or cells: human PBMCs (hPBMCs)
T5 sequence (P15170 whole entry): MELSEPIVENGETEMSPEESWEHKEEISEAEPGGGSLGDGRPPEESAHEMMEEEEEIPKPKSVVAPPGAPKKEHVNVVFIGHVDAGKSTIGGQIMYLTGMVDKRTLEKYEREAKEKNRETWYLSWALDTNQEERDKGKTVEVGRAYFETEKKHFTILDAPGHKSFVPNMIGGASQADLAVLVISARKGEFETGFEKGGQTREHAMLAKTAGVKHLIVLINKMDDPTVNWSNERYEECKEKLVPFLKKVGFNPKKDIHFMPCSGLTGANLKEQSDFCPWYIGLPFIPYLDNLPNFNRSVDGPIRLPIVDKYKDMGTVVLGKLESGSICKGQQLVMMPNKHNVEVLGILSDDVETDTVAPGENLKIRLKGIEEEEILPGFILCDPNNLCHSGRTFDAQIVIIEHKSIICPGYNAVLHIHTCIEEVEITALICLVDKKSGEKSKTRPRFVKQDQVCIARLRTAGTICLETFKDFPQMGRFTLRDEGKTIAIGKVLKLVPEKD
T5 sequence (Q96SW2 whole entry): as the sequence (Q96SW2 whole entry) above
T5 sequence (Q16531 whole entry partner): as the sequence (Q16531 whole entry partner) above
Put plainly: Western-blot assay, substrate protein degradation in hPBMCs: GSPT1.

The next assay addresses T6, IKZF3 (Homo sapiens, UniProt Q96SW2+Q9UKT9).
T6 construct: effects of the compounds of the present disclosure on the expression of target proteins in cells; endogenous in cells; host or cells: human PBMCs (hPBMCs)
Put plainly: Western-blot assay, substrate protein degradation in hPBMCs: IKZF3.

Molecules are shown by their SMILES.

T1 sequence (Q9UKS7 whole entry): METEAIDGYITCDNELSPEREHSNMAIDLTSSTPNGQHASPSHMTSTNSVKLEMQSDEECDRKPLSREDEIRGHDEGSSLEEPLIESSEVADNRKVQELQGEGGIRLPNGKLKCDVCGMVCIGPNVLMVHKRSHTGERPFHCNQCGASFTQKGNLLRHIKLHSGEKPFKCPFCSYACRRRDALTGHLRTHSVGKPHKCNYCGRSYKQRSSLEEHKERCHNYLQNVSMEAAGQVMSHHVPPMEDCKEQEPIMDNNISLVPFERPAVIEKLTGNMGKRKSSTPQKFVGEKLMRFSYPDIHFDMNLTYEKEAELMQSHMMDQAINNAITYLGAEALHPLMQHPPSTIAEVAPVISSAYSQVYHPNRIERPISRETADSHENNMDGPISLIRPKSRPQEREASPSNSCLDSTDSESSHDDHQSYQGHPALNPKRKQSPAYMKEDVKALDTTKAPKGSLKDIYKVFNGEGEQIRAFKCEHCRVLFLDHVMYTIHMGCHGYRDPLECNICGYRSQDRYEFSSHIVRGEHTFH
T1 sequence (Q96SW2 whole entry): as the sequence (Q96SW2 whole entry) above
T1 sequence (Q16531 whole entry partner): as the sequence (Q16531 whole entry partner) above
T4 sequence (P48729 whole entry): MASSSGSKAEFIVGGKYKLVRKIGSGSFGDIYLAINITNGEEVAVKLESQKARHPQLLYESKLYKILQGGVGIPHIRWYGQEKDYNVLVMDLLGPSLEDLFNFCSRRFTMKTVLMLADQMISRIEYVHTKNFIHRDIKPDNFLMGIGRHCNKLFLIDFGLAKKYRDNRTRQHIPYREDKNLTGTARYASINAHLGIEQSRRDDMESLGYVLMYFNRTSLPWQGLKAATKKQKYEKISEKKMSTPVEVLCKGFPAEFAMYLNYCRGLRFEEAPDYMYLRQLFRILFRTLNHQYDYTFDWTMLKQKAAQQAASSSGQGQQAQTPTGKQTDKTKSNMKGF
T4 sequence (Q96SW2 whole entry): as the sequence (Q96SW2 whole entry) above
T4 sequence (Q16531 whole entry partner): as the sequence (Q16531 whole entry partner) above
T6 sequence (Q9UKT9 whole entry): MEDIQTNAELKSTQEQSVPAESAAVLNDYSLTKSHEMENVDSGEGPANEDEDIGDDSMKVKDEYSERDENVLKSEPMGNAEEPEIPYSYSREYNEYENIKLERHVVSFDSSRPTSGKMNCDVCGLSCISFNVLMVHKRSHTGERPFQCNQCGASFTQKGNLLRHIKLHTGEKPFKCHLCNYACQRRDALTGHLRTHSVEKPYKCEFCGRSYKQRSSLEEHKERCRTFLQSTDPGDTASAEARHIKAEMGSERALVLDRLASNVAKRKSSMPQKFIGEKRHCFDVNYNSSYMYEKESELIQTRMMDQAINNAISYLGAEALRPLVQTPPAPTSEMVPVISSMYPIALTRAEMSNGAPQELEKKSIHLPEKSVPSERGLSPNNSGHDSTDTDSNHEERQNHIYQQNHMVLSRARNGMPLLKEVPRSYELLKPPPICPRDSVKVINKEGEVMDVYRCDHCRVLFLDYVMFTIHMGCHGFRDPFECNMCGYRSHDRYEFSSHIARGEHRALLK
T6 sequence (Q96SW2 whole entry): as the sequence (Q96SW2 whole entry) above
T6 sequence (Q16531 whole entry partner): as the sequence (Q16531 whole entry partner) above

On to `O=C1CCN(N2Cc3cc(CN4CC=C(c5ncccc5F)CC4)ccc3C2=O)C(=O)N1` [GT-06395, 1-(5-((3-fluoro-3',6'-dihydro-[2,4'-bipyridin]-1'(2'H)-yl)methyl)-1-oxoisoindolin-2-yl)dihydropyrimidine-2,4(1H,3H)-dione], for which the “IKZF2 substrate protein remaining %” value at IKZF2 is recorded as “B ("B" is defined as 80%< substrate protein remaining %≤ 100%)”. Also, the “IKZF1 substrate protein remaining %” value at IKZF1 is “B ("B" is defined as 80%< substrate protein remaining %≤ 100%)”. Further, on WEE1, the “WEE1 substrate protein remaining %” value was “B ("B" is defined as 80%< substrate protein remaining %≤ 100%)”. Moreover, the “CK1α substrate protein remaining %” value at CK1α is given as “A ("A" is defined as 0% ≤ substrate protein remaining % ≤ 80%)”. Further, the “GSPT1 substrate protein remaining %” value on GSPT1 is recorded as “A ("A" is defined as 0% ≤ substrate protein remaining % ≤ 80%)”. Also, the “IKZF3 substrate protein remaining %” value at IKZF3 is reported as “B ("B" is defined as 80%< substrate protein remaining %≤ 100%)”.
Consider `O=C1CCN(N2Cc3cc(CN4CCC(c5ccnc(F)c5F)CC4)ccc3C2=O)C(=O)N1` [GT-06396, 1-(5-((4-(2,3-difluoropyridin-4-yl)piperidin-1-yl)methyl)-1-oxoisoindolin-2-yl)dihydropyrimidine-2,4(1H,3H)-dione], for which, on IKZF2, the “IKZF2 substrate protein remaining %” value is reported as “B ("B" is defined as 80%< substrate protein remaining %≤ 100%)”. For the same compound, the “IKZF1 substrate protein remaining %” value on IKZF1 was “B ("B" is defined as 80%< substrate protein remaining %≤ 100%)”. For the same compound, the “WEE1 substrate protein remaining %” value on WEE1 is “B ("B" is defined as 80%< substrate protein remaining %≤ 100%)”. Besides, the “CK1α substrate protein remaining %” value on CK1α is on record as “A ("A" is defined as 0% ≤ substrate protein remaining % ≤ 80%)”. Moreover, at GSPT1, the “GSPT1 substrate protein remaining %” value is “B ("B" is defined as 80%< substrate protein remaining %≤ 100%)”. The “IKZF3 substrate protein remaining %” value at IKZF3 is recorded as “B ("B" is defined as 80%< substrate protein remaining %≤ 100%)”.
For the compound `O=C1CCN(N2Cc3cc(CN4CC=C(c5ccnc(F)c5F)CC4)ccc3C2=O)C(=O)N1` [GT-06397, 1-(5-((2',3'-difluoro-3,6-dihydro-[4,4'-bipyridin]-1(2H)-yl)methyl)-1-oxoisoindolin-2-yl)dihydropyrimidine-2,4(1H,3H)-dione], the “IKZF2 substrate protein remaining %” value at IKZF2 was “A ("A" is defined as 0% ≤ substrate protein remaining % ≤ 80%)”. Also, the “IKZF1 substrate protein remaining %” value on IKZF1 was “B ("B" is defined as 80%< substrate protein remaining %≤ 100%)”. The “WEE1 substrate protein remaining %” value at WEE1 is given as “A ("A" is defined as 0% ≤ substrate protein remaining % ≤ 80%)”. Moreover, the “CK1α substrate protein remaining %” value on CK1α is “B ("B" is defined as 80%< substrate protein remaining %≤ 100%)”. Moreover, the “GSPT1 substrate protein remaining %” value on GSPT1 is recorded as “A ("A" is defined as 0% ≤ substrate protein remaining % ≤ 80%)”. Besides, at IKZF3, the “IKZF3 substrate protein remaining %” value is given as “B ("B" is defined as 80%< substrate protein remaining %≤ 100%)”.
Turning to `CC1CN(Cc2ccc3c(c2)C(=O)N(N2CCC(=O)NC2=O)C3=O)CC(C)N1C(c1ccccc1)c1ccccc1` (stereo not drawn) [GT-06430, 5-((4-benzhydryl-3,5-dimethylpiperazin-1-yl)methyl)-2-(2,4-dioxotetrahydropyrimidin-1(2H)-yl)isoindoline-1,3-dione], the “IKZF2 substrate protein remaining %” value on IKZF2 was “B ("B" is defined as 80%< substrate protein remaining %≤ 100%)”. Also, on IKZF1, the “IKZF1 substrate protein remaining %” value is on record as “A ("A" is defined as 0% ≤ substrate protein remaining % ≤ 80%)”. For the same compound, on WEE1, the “WEE1 substrate protein remaining %” value was “A ("A" is defined as 0% ≤ substrate protein remaining % ≤ 80%)”. On CK1α, the “CK1α substrate protein remaining %” value is recorded as “B ("B" is defined as 80%< substrate protein remaining %≤ 100%)”. Besides, at GSPT1, the “GSPT1 substrate protein remaining %” value is listed as “A ("A" is defined as 0% ≤ substrate protein remaining % ≤ 80%)”. For the same compound, the “IKZF3 substrate protein remaining %” value at IKZF3 was “A ("A" is defined as 0% ≤ substrate protein remaining % ≤ 80%)”.
For the compound `CC1CN(Cc2ccc3c(c2)CN(N2CCC(=O)NC2=O)C3=O)CC(C)N1C(c1ccccc1)c1ccccc1` (stereo not drawn) [GT-06431, 1-(5-((4-benzhydryl-3,5-dimethylpiperazin-1-yl)methyl)-1-oxoisoindolin-2-yl)dihydropyrimidine-2,4(1H,3H)-dione], the “IKZF2 substrate protein remaining %” value on IKZF2 is “A ("A" is defined as 0% ≤ substrate protein remaining % ≤ 80%)”. Moreover, on IKZF1, the “IKZF1 substrate protein remaining %” value is “A ("A" is defined as 0% ≤ substrate protein remaining % ≤ 80%)”. Further, the “WEE1 substrate protein remaining %” value on WEE1 is “A ("A" is defined as 0% ≤ substrate protein remaining % ≤ 80%)”. In addition, on CK1α, the “CK1α substrate protein remaining %” value was “B ("B" is defined as 80%< substrate protein remaining %≤ 100%)”. Moreover, the “GSPT1 substrate protein remaining %” value at GSPT1 is listed as “A ("A" is defined as 0% ≤ substrate protein remaining % ≤ 80%)”. For the same compound, the “IKZF3 substrate protein remaining %” value at IKZF3 is recorded as “B ("B" is defined as 80%< substrate protein remaining %≤ 100%)”.
Turning to `O=C1CCN(N2C(=O)c3ccc(CN4CCN(Cc5ccccc5-c5ccc(Cl)cc5)CC4)cc3C2=O)C(=O)N1` [GT-06432, 5-((4-((4'-chloro-[1,1'-biphenyl]-2-yl)methyl)piperazin-1-yl)methyl)-2-(2,4-dioxotetrahydropyrimidin-1(2H)-yl)isoindoline-1,3-dione], on IKZF2, the “IKZF2 substrate protein remaining %” value is “B ("B" is defined as 80%< substrate protein remaining %≤ 100%)”. In addition, the “IKZF1 substrate protein remaining %” value on IKZF1 is given as “A ("A" is defined as 0% ≤ substrate protein remaining % ≤ 80%)”. Moreover, the “WEE1 substrate protein remaining %” value at WEE1 was “A ("A" is defined as 0% ≤ substrate protein remaining % ≤ 80%)”. The “CK1α substrate protein remaining %” value on CK1α is “B ("B" is defined as 80%< substrate protein remaining %≤ 100%)”. In addition, the “GSPT1 substrate protein remaining %” value at GSPT1 was “A ("A" is defined as 0% ≤ substrate protein remaining % ≤ 80%)”. The “IKZF3 substrate protein remaining %” value at IKZF3 is recorded as “B ("B" is defined as 80%< substrate protein remaining %≤ 100%)”.
Take `O=C1CCN(N2Cc3cc(CN4CCN(Cc5ccccc5-c5ccc(Cl)cc5)CC4)ccc3C2=O)C(=O)N1` [GT-06433, 1-(5-((4-((4'-chloro-[1,1'-biphenyl]-2-yl)methyl)piperazin-1-yl)methyl)-1-oxoisoindolin-2-yl)dihydropyrimidine-2,4(1H,3H)-dione]: the “IKZF2 substrate protein remaining %” value at IKZF2 is listed as “A ("A" is defined as 0% ≤ substrate protein remaining % ≤ 80%)”. In addition, the “IKZF1 substrate protein remaining %” value at IKZF1 is given as “A ("A" is defined as 0% ≤ substrate protein remaining % ≤ 80%)”. The “WEE1 substrate protein remaining %” value at WEE1 is “A ("A" is defined as 0% ≤ substrate protein remaining % ≤ 80%)”. Moreover, the “CK1α substrate protein remaining %” value on CK1α is recorded as “B ("B" is defined as 80%< substrate protein remaining %≤ 100%)”. The “GSPT1 substrate protein remaining %” value on GSPT1 is given as “A ("A" is defined as 0% ≤ substrate protein remaining % ≤ 80%)”. Moreover, the “IKZF3 substrate protein remaining %” value on IKZF3 was “A ("A" is defined as 0% ≤ substrate protein remaining % ≤ 80%)”.
As for `Cc1ccsc1C1=CCN(Cc2ccc3c(c2)C(=O)N(N2CCC(=O)NC2=O)C3=O)CC1` [GT-06434, 2-(2,4-dioxotetrahydropyrimidin-1(2H)-yl)-5-((4-(3-methylthiophen-2-yl)-3,6-dihydropyridin-1(2H)-yl)methyl)isoindoline-1,3-dione], the “IKZF2 substrate protein remaining %” value on IKZF2 is “A ("A" is defined as 0% ≤ substrate protein remaining % ≤ 80%)”. Besides, the “IKZF1 substrate protein remaining %” value at IKZF1 is given as “B ("B" is defined as 80%< substrate protein remaining %≤ 100%)”. Besides, at WEE1, the “WEE1 substrate protein remaining %” value is recorded as “A ("A" is defined as 0% ≤ substrate protein remaining % ≤ 80%)”. Besides, the “CK1α substrate protein remaining %” value at CK1α is listed as “B ("B" is defined as 80%< substrate protein remaining %≤ 100%)”. Moreover, the “GSPT1 substrate protein remaining %” value on GSPT1 was “A ("A" is defined as 0% ≤ substrate protein remaining % ≤ 80%)”. Further, the “IKZF3 substrate protein remaining %” value on IKZF3 was “A ("A" is defined as 0% ≤ substrate protein remaining % ≤ 80%)”.
